Test results taken from patent US6793914B2, “Anti-microbial compositions” (Unilever Home & Personal Care USA, division of Conopco, Inc., priority 2000, dated 2004).
Where two headings read alike, the source gives them in different places.

Key:
[1] = system: S. epidermidis; assay: Anti-Microbial Test 2: in vitro growth inhibition by chelators (optical density at 600 nm); format: cell-based, Staphylococcus epidermidis (axillary isolate); details: chelator 5×10^−5 mol.dm^−3 in semi-synthetic medium pH 6.7, 16 hours at 37° C., relative to control medium
Procedure: The chelators indicated in Table 4 were subjected to the following in vitro test for anti-microbial activity against Staphylococcus Epidermididis.
An axillary isolate of S. epidermidis was grown overnight in 100 ml of tryptone soy broth (TSB, ex Oxoid Ltd.). 10 ml of this culture was taken and subjected to centrifugation. The separated cells were re-suspended in 10 ml of phosphate-buffered saline and the centrifugation procedure repeated. The washed cells were re-suspended in 10 ml of phosphate-buffered saline to give the inoculum.
100 ml of semi-synthetic medium (SSM) [containing (NH4)2SO4 (0.066 g), MgSO4.7H2O (0.012 g), KCl (0.1 g), KH2PO4 (0.27 g), Na2HPO4 (1.43 g), Thiamin (0.1 mg), Biotin (0.05 mg), Peptone P (0.05 g), Glucose (2.0 mmole)] was sterilised by autoclaving at 121° C. for 20 minutes. After sterilisation, the pH was adjusted to 6.7 with HCl to give the control medium. The chelator-containing test media were prepared in a similar manner, the chelator being introduced at a concentration of 5×10^−5 mol.dm^−3, before the pH adjustment with HCl.
100 μl of the inoculum was introduced into each of the test media and the control medium. The cultures were incubated at 37° C. (with agitation at 200 rpm) for 16 hours. After this time, the optical density of the cultures were measured at 600 nm to determine the extent of bacterial growth. By comparing the optical density of the culture in the presence of chelating agent to that of the control, the percentage inhibition of growth was established for each of the chelators. (Optical density measurements were made on 1 in 4 dilutions of the cultures with 0.9% (w/v) saline, using 1 cm path length cuvettes, on a Pharmacia Biotech Ultrospec 200 Spectrophotometer.)

[2] = cited from earlier work; for Log10K (iron (III) binding constant): fully deprotonated chelator, independent of pH
[3] = system: Staphylococcus epidermidis; details: cited from earlier work
[4] = literature values, 80% or greater reduction in growth over 16 to 24 hours at 37° C.

SMILES | Inhibition of growth (%) [1] | iron (III) binding constant ([2]; Critical Stability Constants, Martell and Smith, 1974) | Log10K (iron (III) binding constant) [2] | MIC ([3]; stated by contrast, no source given) | MIC [3, 4]
O=C(O)CC(NCCNC(CC(=O)O)C(=O)O)C(=O)O (mixture of isomers) [EDDS, N,N-ethylenediaminedisuccinic acid, reference compound] | 18% | 10^22 | 22.0 | – | –
O=C(O)CN(CC(=O)O)[C@@H]1CCCC[C@H]1N(CC(=O)O)CC(=O)O (relative stereo) [CDTA, trans-1,2-diaminocyclohexane-N, N,N′,N′-tetraacetic acid] | >70% | – | 28.05 | – | –
O=C(O)CN(CCN(CC(=O)O)CC(=O)O)CCN(CC(=O)O)CC(=O)O [DTPA, diethylenetriaminepentaacetic acid] | >70% | – | 28.6 | – | –
O=C(O)C(NCCNC(C(=O)O)c1ccccc1O)c1ccccc1O (centres unmarked) [EDDHA, N,N′-ethylenebis[2-(2-hydroxyphenyl)glycine]] | >70% | – | 35.5 | – | –
O=C(O)CN(CCN(CC(=O)O)CC(=O)O)CC(=O)O [EDTA, ethylenediaminetetraacetic acid] | >70% | – | 25.1 | – | –
O=C(O)CN(CCOCCOCCN(CC(=O)O)CC(=O)O)CC(=O)O [EGTA, Ethyleneglycol-O,O′-bis-(2-aminoethyl)-N,N,N′,N′-tetraacetic acid, reference compound] | 21% | – | 20.5 | – | –
O=C(O)CN(CC(=O)O)CC(=O)O [NTA, Nitrilotriacetic acid, reference compound] | 6% | – | 15.9 | – | –
O=C(O)CN(CCN(CCN(CC(=O)O)CC(=O)O)CC(=O)O)CCN(CC(=O)O)CC(=O)O [TTHA, triethylenetetraaminehexaacetic acid] | >70% | – | 26.8 | – | –
CCO [ethanol] | – | – | – | greater than 1 mg.ml^−1 | –
CC(C)=CCCC(C)=CCCC(C)=CCO [farnesol, 3,7,11-trimethyldodeca-2,6,10-trienol] | – | – | – | – | ca. 25 μg.ml^−1
Oc1cc(Cl)ccc1Oc1ccc(Cl)cc1Cl [triclosan, 2′,4,4′-trichloro,2-hydroxy-diphenyl ether] | – | – | – | – | 0.01 to 10 µg/mL
